Experiment [1] addresses T1, Cathepsin S (Homo sapiens, UniProt P25774). The experiment can be described thus: Inhibition of cathepsin S in human JY cells assessed as accumulation of invariant chain p10li after 24 hrs by Western blot analysis. In kind it is cell-based.
For experiment [2], the target named is T1, Cathepsin S. The experiment in a line: Inhibition of human recombinant cathepsin S expressed in baculovirus expression sytem after 15 mins by FRET assay.

pIC50: −log10 of the molar value.

T1 sequence (P25774 whole entry): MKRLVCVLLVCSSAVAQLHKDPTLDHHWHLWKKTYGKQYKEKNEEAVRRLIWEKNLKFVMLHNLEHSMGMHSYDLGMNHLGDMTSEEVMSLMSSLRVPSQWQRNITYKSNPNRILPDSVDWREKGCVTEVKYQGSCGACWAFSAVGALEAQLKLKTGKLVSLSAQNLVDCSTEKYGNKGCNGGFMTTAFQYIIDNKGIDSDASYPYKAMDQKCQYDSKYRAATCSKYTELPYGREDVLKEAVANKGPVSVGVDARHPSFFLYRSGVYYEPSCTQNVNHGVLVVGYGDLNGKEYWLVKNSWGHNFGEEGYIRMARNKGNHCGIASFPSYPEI

Turning to `O=C(CSc1cc(-c2nn(CC(O)CN3CCC(c4ccccn4)CC3)c3c2CNCC3)ccc1C(F)(F)F)N1CCOCC1` (racemic), the pIC50 (as a rule, the negative decadic logarithm of the IC50, by convention in mol/L) in experiment [1] is 5.77.

On to `CS(=O)(=O)N1CCc2c(c(-c3ccc(C(F)(F)F)c(SCC(=O)N4CCCC4)c3)nn2CCCN2CCC(N3CCCC3=O)CC2)C1`, for which the pIC50 in experiment [1] is 5.71.

As to `CS(=O)(=O)N1CCc2c(c(-c3ccc(C(F)(F)F)c(SCC(=O)N4CCOCC4)c3)nn2CC(O)CN2CCC(c3ccccc3F)CC2)C1` (racemic), the negative-log IC50 (pIC50) in experiment [2] was 8.00; in experiment [1], 5.50.

Regarding `COc1ccccc1C1CCN(CC(O)Cn2nc(-c3ccc(C(F)(F)F)c(SCC(=O)N4CCOCC4)c3)c3c2CCN(S(C)(=O)=O)C3)CC1` (racemic), the pIC50 in experiment [1] was 6.72.

Regarding `CS(=O)(=O)N1CCc2c(c(-c3ccc(C(F)(F)F)c(SCC(=O)N4CC[C@@H](O)C4)c3)nn2CC(O)CN2CCC(c3ccccn3)CC2)C1` (mixture of isomers), the pIC50 was 8.15 in experiment [2] and 7.52 in experiment [1].

Consider `CS(=O)(=O)N1CCc2c(c(-c3ccc(C(F)(F)F)c(SCC(=O)N4CCCCC4)c3)nn2CC(O)CN2CCC(c3ccccn3)CC2)C1` (stereo unspecified), for which the pIC50 in experiment [1] is 5.81.

Turning to `CS(=O)(=O)N1CCc2c(c(-c3ccc(C(F)(F)F)c(SCCN4CCCCC4)c3)nn2CCCN2CCC(N3CCCC3=O)CC2)C1`, in experiment [1], the pIC50 is 7.40.

Regarding `CS(=O)(=O)N1CCc2c(c(-c3ccc(C(F)(F)F)c(SCC(=O)N4CCCCC4)c3)nn2CCCN2CCC(N3CCCC3=O)CC2)C1`, the pIC50 in experiment [2] was 7.15; in experiment [1], 5.41.

Consider `COc1ccccc1C1CCN(CC(O)Cn2nc(-c3ccc(C(F)(F)F)c(SCC(=O)N4CCOCC4)c3)c3c2CCN(C(C)=O)C3)CC1` (racemic), for which the pIC50 in experiment [1] was 6.05.

For the molecule `CS(=O)(=O)N1CCc2c(c(-c3ccc(C(F)(F)F)c(SCC(=O)N4CC[C@H](O)C4)c3)nn2CC(O)CN2CCC(c3ccccn3)CC2)C1` (stereo partly specified), the pIC50 in experiment [2] was 8.15; in experiment [1] it was 7.52.

`CCN1CCc2c(c(-c3ccc(C(F)(F)F)c(SCC(=O)N4CCCC4)c3)nn2CC(O)CN2CCC(c3ccccn3)CC2)C1` (racemic): the pIC50 in experiment [2] is 6.60.

With `CS(=O)(=O)N1CCc2c(c(-c3ccc(C(F)(F)F)c(SCCNC(=O)Cc4ccccc4)c3)nn2CC(O)CN2CCC(N3CCCC3=O)CC2)C1` (stereo unspecified), in experiment [1], the pIC50 is below 5.00.

On to `CN1CCN(C(=O)CSc2cc(-c3nn(CCCN4CCC(N5CCCC5=O)CC4)c4c3CN(S(C)(=O)=O)CC4)ccc2C(F)(F)F)CC1`, for which the pIC50 in experiment [2] was 6.13; in experiment [1], 6.96.

`CC(=O)N1CCc2c(c(-c3ccc(C(F)(F)F)c(SCC(=O)N4CCCC4)c3)nn2CC(O)CN2CCC(C)CC2)C1` (racemic): the pIC50 is 6.74 in experiment [2] and 7.10 in experiment [1].

`CC1CCCN1C(=O)CSc1cc(-c2nn(CCCN3CCC(N4CCCC4=O)CC3)c3c2CN(S(C)(=O)=O)CC3)ccc1C(F)(F)F` (stereo unspecified): the pIC50 in experiment [1] is 5.22.

Turning to `CS(=O)(=O)N1CCc2c(c(-c3ccc(C(F)(F)F)c(SCC(=O)NCc4ccccc4)c3)nn2CCCN2CCC(N3CCCC3=O)CC2)C1`, the negative logarithm of the IC50 (pIC50) in experiment [1] is 5.00.

Consider `C[C@H]1CCCCN1CC(O)Cn1nc(-c2ccc(C(F)(F)F)c(SCC(=O)N3CCOCC3)c2)c2c1CCN(S(C)(=O)=O)C2` (mixture of isomers), for which the pIC50 is 6.52 in experiment [2] and 5.00 in experiment [1].

On to `CC1CCN(C(=O)CSc2cc(-c3nn(CCCN4CCC(N5CCCC5=O)CC4)c4c3CN(S(C)(=O)=O)CC4)ccc2C(F)(F)F)CC1`, for which the values for the pIC50 in experiment [2] and in experiment [1] were 6.68 and 5.10, respectively.

Turning to `CS(=O)(=O)N1CCc2c(c(-c3ccc(C(F)(F)F)c(SCC(=O)N4CCOCC4)c3)nn2CCCN2CCC(N3CCCC3=O)CC2)C1`, the pIC50 in experiment [2] is 7.70; in experiment [1], 6.35.

Take `CS(=O)(=O)N1CCc2c(c(-c3ccc(C(F)(F)F)c(SCC(=O)N4CCCC4)c3)nn2CC(O)CN2CCC(c3ccccn3)CC2)C1` (racemic): the pIC50 in experiment [2] was 9.00; in experiment [1] it was 6.33.

Take `COc1ccccc1C1CCN(CC(O)Cn2nc(-c3ccc(C(F)(F)F)c(SCC(=O)N4CCOCC4)c3)c3c2CCNC3)CC1` (racemic): the results for the pIC50 in experiment [2] and in experiment [1] were 6.72 and 5.73, respectively.

As for `CS(=O)(=O)N1CCc2c(c(-c3ccc(C(F)(F)F)c(SCC(=O)N4CCC(O)C4)c3)nn2CCCN2CCC(N3CCCC3=O)CC2)C1` (racemic), the pIC50 in experiment [1] was 6.28.

`COc1ccccc1C1CCN(CC(O)Cn2nc(-c3ccc(C(F)(F)F)c(SCC(=O)N4CCOCC4)c3)c3c2CCN(C(=O)CO)C3)CC1` (racemic): the negative-log IC50 (pIC50) in experiment [1] is 6.32.

For the molecule `O=C(CSc1cc(-c2nn(CC(O)CN3CCC(c4ccccn4)CC3)c3c2CN(C(=O)CO)CC3)ccc1C(F)(F)F)N1CCOCC1` (racemic), in experiment [1], the pIC50 was 6.80.

Consider `CS(=O)(=O)N1CCc2c(c(-c3ccc(C(F)(F)F)c(SCC(=O)N4CCCC4)c3)nn2CCCN2CCC(C(=O)N3CCCC3)CC2)C1`, for which the negative logarithm of the IC50 (pIC50) is 7.40 in experiment [2] and 6.55 in experiment [1].

For `CC(=O)N1CCc2c(c(-c3ccc(C(F)(F)F)c(SCC(=O)N4CCCC4)c3)nn2CC(O)CN2CCC(C(C)(C)O)CC2)C1` (racemic), the pIC50 in experiment [1] was 6.96.

Regarding `CS(=O)(=O)N1CCc2c(c(-c3ccc(C(F)(F)F)c(SCC(=O)N4CCC(CO)CC4)c3)nn2CCCN2CCC(N3CCCC3=O)CC2)C1`, the pIC50 in experiment [1] was 6.47.

With `CS(=O)(=O)N1CCc2c(c(-c3ccc(C(F)(F)F)c(SCC(=O)N4CCOCC4)c3)nn2CC(O)CN2CCC(c3ccccn3)CC2)C1` (racemic), the pIC50 in experiment [1] is 6.42.

`COc1ccccc1C1CCN(CC(O)Cn2nc(-c3ccc(C(F)(F)F)c(SCC(=O)N4CCCC4)c3)c3c2CCNC3)CC1` (racemic): the pIC50 in experiment [1] is 6.92.
